Data: article PMC11410929, “Biochemical and crystallographic studies of L,D-transpeptidase 2 from Mycobacterium tuberculosis with its natural monomer substrate” (Communications Biology, 2024)

Test system: LdtMt2^C354S
Type: biochemical, Mycobacterium tuberculosis

Substance: GlcNAc-MurNAc-L-Ala-D-iGluNH2-m-DAPNH2-D-Ala-D-Ala [Compound 4]
- Product formation with LdtMt2^C354S: no product formation was observed
